Experimental data as given in ChEMBL document CHEMBL1154550, “Isolation of psammaplin A 11'-sulfate and bisaprasin 11'-sulfate from the marine sponge Aplysinella rhax” (J Nat Prod, 2000).
Activity calls are given as the source filed them. The calls are words filed in the database; no cut-off is given here.

Assays:
[1] = target: T1, Adenosine receptor A1 (Rattus norvegicus) (UniProt P25099); test: Displacement of […] from adenosine A1 receptor in rat brain up to 2.2 mM; format: tissue-based
T1 sequence (whole entry): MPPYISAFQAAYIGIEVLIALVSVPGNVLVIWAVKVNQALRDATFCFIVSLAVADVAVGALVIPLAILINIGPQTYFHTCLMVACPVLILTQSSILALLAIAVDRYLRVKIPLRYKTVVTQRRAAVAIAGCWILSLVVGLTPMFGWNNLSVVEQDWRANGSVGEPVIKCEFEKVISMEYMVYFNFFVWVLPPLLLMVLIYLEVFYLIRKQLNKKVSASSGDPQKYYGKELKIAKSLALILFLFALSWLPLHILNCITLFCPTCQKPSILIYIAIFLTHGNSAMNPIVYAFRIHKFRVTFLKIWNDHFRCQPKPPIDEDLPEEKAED

Adenosine receptor A1 = target: T2, Adenosine receptor A1 (Rattus norvegicus, UniProt P25099); test: Displacement of […] from adenosine A1 receptor in rat brain; format: tissue-based
T2 sequence (P25099 whole entry): T1 sequence (whole entry)

Activity [1]	IC50 (Adenosine receptor A1)	Structure (SMILES)
inactive		O=C(NCCSSCCNC(=O)/C(Cc1cc(Br)c(O)c(-c2cc(C/C(=N\O)C(=O)NCCSSCCNC(=O)/C(Cc3ccc(OS(=O)(=O)O)c(Br)c3)=N/O)cc(Br)c2O)c1)=N/O)/C(Cc1ccc(O)c(Br)c1)=N/O
	90 µM	O=C(NCCSSCCNC(=O)/C(Cc1ccc(OS(=O)(=O)O)c(Br)c1)=N/O)/C(Cc1ccc(O)c(Br)c1)=N/O
	20 µM	O=C(NCCSSCCNC(=O)/C(Cc1ccc(O)c(Br)c1)=N/O)/C(Cc1ccc(O)c(Br)c1)=N/O [PSAMMAPLIN A]
